In a melting point compilation (Tetko et al.; mined from patent text by program, amines drawn as free bases though some values may be those of a salt):

**Q.** Which melting point does the source give for `CCOC(=O)CC(NC(=O)C1=C(C(=O)Nc2ccc(Cl)cc2F)CCCC1)C(=O)OCC` (centres undefined) here?
**A.** 109 to 110 °C

**Q.** For `CCCC(CCC)CCCC(N)=O`, which melting point is on record?
**A.** 44 °C

**Q.** Which melting point does the source give for `N#CC(C#N)=C1N(CCCN2CCCCC2)CCN1CCN1CCCCCC1` here?
**A.** 80 to 86 °C

**Q.** Which melting point does the source give for `O=S1(=O)NC(Cl)=Nc2ccc(Cl)cc21` here?
**A.** 242 to 244 °C

**Q.** For `COc1ccc(Oc2ccc3c(c2)SC(c2ccc(OC)cc2)C(O)C(=O)N3)cc1` (centres undefined), which melting point is on record?
**A.** 213 to 214 °C

**Q.** With `CC(C)(C)c1ccc(OP(Oc2ccc(C(C)(C)C)cc2C(C)(C)C)Oc2ccc(C(C)(C)C)cc2C(C)(C)C)c(C(C)(C)C)c1` as the compound, how does the melting point read?
**A.** 181 to 186 °C

**Q.** For `Cc1cnc2c(c1)CCCC2C(N)=S` (centres undefined), which melting point is on record?
**A.** 149 °C

**Q.** Which melting point does the source give for `CCN(C(=O)OC)c1cccc(-c2ccc3nncn3n2)c1` here?
**A.** 131 to 135 °C

**Q.** With `N#Cc1cccc(N2CCc3cc(OCc4ccccc4)ccc32)c1` as the compound, how does the melting point read?
**A.** 102 to 104 °C

**Q.** With `CCCCc1cc(C#N)sc1-c1ccc2c(c1)C(C)(C)OC(=O)N2` as the compound, how does the melting point read?
**A.** 167 to 168 °C

**Q.** For `COC(=O)c1ccccc1CSc1c(O)cc(-c2ccccc2)oc1=O`, which melting point is on record?
**A.** 122 to 123 °C

**Q.** Which melting point does the source give for `O=C1Cc2cc(O)cc(O)c2C2CCCCC12` (centres undefined) here?
**A.** 220 to 223 °C

**Q.** Which melting point does the source give for `COc1cc(NC(C)=O)ccc1OCCN1CCN(c2ccccc2F)CC1` here?
**A.** 118 to 119 °C

**Q.** Which melting point does the source give for `Brc1ccc(-c2cc(-c3ccc(Br)cc3)on2)cc1` here?
**A.** 218 to 220 °C

**Q.** For `CCN(CC)CCOC(=O)CCc1cc(S(C)(=O)=O)cc(-c2nc(=O)c3ccc(Cl)cc3s2)n1`, which melting point is on record?
**A.** 150 to 152 °C

**Q.** For `CNc1nc(-c2cccc(NC(=O)c3ccc(OC)c(OC4CCCC4)c3)c2)c2cc(OC)c(OC)cc2n1`, which melting point is on record?
**A.** 129 to 131 °C

**Q.** For `CN1NC(=O)C2C(C1=O)C2(C)C` (centres undefined), which melting point is on record?
**A.** 151 to 154 °C

**Q.** With `CCCc1c(COc2ccc(Cc3nnnn3CC(=O)O)cc2)ccc(C(C)=O)c1O` as the compound, how does the melting point read?
**A.** 205 to 210 °C

**Q.** Which melting point does the source give for `Cc1cn(-c2cc(NC(=O)c3ccc(C)c(C#Cc4ccc(NC5CC5)nn4)c3)cc(C(F)(F)F)c2)cn1` here?
**A.** 226 to 228 °C

**Q.** For `CNc1nc(C)c(C(=O)c2ccc(Cl)c([N+](=O)[O-])c2)s1`, which melting point is on record?
**A.** 220 to 232 °C

**Q.** Which melting point does the source give for `O=C(O)CCc1cn(Cc2ccc(OCc3coc(-c4ccccc4)n3)cc2)cc1-c1ccccc1` here?
**A.** 139 to 140 °C

**Q.** Which melting point does the source give for `CC1CCCCN1C(=O)C1Cc2ccccc2N1c1ccc(=O)n(C)n1` (centres undefined) here?
**A.** 96 to 98 °C

**Q.** For `Nc1cccc(N2C(=O)c3ccc(N)cc3C2=O)c1`, which melting point is on record?
**A.** 228 to 231 °C

**Q.** With `Oc1ccc2c(c1)COc1c-2cc2ccc(O)cc2c1Cl` as the compound, how does the melting point read?
**A.** 230 to 231 °C

**Q.** For `NC(=O)n1ccc(-c2ccc(Oc3ccc(N)cc3)cc2)n1`, which melting point is on record?
**A.** 158 to 160 °C

**Q.** For `COC(=O)C(=O)c1ccc(OCCCC(=O)c2ccc3ccccc3c2)cc1`, which melting point is on record?
**A.** 86 to 87 °C

**Q.** With `CSCC[C@@H](NC(=O)OC(C)(C)C)C(=O)Nc1ccc(N2C[C@H](CNC(=O)c3ccc(Cl)s3)OC2=O)cc1` as the compound, how does the melting point read?
**A.** 183 °C

**Q.** Which melting point does the source give for `CCOc1ccc(C=CC(=O)c2c(OC)cc(OC)cc2OP(=O)(O)O)cc1` here?
**A.** 63 to 64 °C

**Q.** With `COc1ccc2c(Nc3ccc(Cl)cc3F)c(C#N)cnc2c1` as the compound, how does the melting point read?
**A.** 208 to 210 °C

**Q.** With `CC(C)=CCN1CCc2c(sc(N)c2C(=O)c2ccc(Br)cc2)C1` as the compound, how does the melting point read?
**A.** 73 to 75 °C

**Q.** Which melting point does the source give for `CCCOC1(C(F)(F)F)CN(C2CC2)C(=O)Nc2ccc(Cl)cc21` (centres undefined) here?
**A.** 153 to 154 °C

**Q.** Which melting point does the source give for `COc1ccc2c(c1O)NC(=O)C1CCCN1C2=O` (centres undefined) here?
**A.** 275 to 278 °C

**Q.** For `O=C(O)CCCCNS(=O)(=O)c1ccc(N2CCCCC2)cc1`, which melting point is on record?
**A.** 115 to 120 °C

**Q.** Which melting point does the source give for `O=C(SC[C@H](SC(=O)c1ccccc1)C(=O)N[C@@H](CO)C(=O)O)c1ccccc1` here?
**A.** 147 to 150 °C

**Q.** With `CCCCC[C@@H](C)C[C@H](CN)CC(=O)O` as the compound, how does the melting point read?
**A.** 174 to 175 °C

**Q.** Which melting point does the source give for `Cc1cccc(-c2[nH]c(C(C)C)nc2-c2cccc(-c3ccc(F)cc3F)c2)n1` here?
**A.** 70 to 72 °C

**Q.** With `CC(C)(C)c1cc(OCc2ccccc2C(=O)O)cc(C(C)(C)C)c1` as the compound, how does the melting point read?
**A.** 173 to 174 °C

**Q.** Which melting point does the source give for `CCOC(=O)c1ccc(-c2cccc(O)c2)c(C(C)(C)C)c1` here?
**A.** 118 to 120 °C

**Q.** Which melting point does the source give for `Cn1c(=O)c2c(ncn2CCN2CCC(c3c[nH]c4ccccc34)CC2)n(C)c1=O` here?
**A.** 201 °C

**Q.** Which melting point does the source give for `CCOC(=O)c1cc(OC)ccc1Nc1ccc(O)cc1` here?
**A.** 134 to 136 °C

**Q.** With `COc1cc(-c2ccc(C=O)cc2)nc(C)n1` as the compound, how does the melting point read?
**A.** 114 to 115 °C

**Q.** Which melting point does the source give for `Cc1c(C)c2c(c(C)c1O)C(CBr)C(C)(C)O2` (centres undefined) here?
**A.** 79 to 80 °C

**Q.** Which melting point does the source give for `Cc1nn(C)c(O)c1C(=O)c1ccc(Cl)c(OCCn2cnnn2)c1Cl` here?
**A.** 63 to 68 °C

**Q.** Which melting point does the source give for `COc1ccc(C2CNC(=O)N2C)cc1NC1CC2CCC1C2` (centres undefined) here?
**A.** 171 to 174 °C

**Q.** For `CCCc1c(OCCCOc2cc(O)c(-c3ccc(F)cc3)cc2CC)cccc1Oc1cc(F)ccc1C(=O)O`, which melting point is on record?
**A.** 62 to 64 °C

**Q.** With `Cc1cccc(C)c1-n1cnc(OC(C)C(=O)O)n1` (centres undefined) as the compound, how does the melting point read?
**A.** 178 to 180 °C

**Q.** Which melting point does the source give for `CCOC(=O)C(F)(F)C(I)c1ccc(OC)cc1` (centres undefined) here?
**A.** 44 to 45 °C

**Q.** With `O=C1c2ccccc2-n2cncc2[C@@H]2CCCN12` as the compound, how does the melting point read?
**A.** 211 to 212 °C

**Q.** Which melting point does the source give for `O=c1[nH]c2cc(Cl)ccc2c(NCc2ccccc2)c1-c1ccccc1` here?
**A.** 179 °C
